From EP1163907A1, “Use of l-threo-methylphenidate for the treatment of depression” (Pharmaquest Limited, priority 2000, dated 2001)
Like-named read-outs stand apart in the source and are kept apart here. Marks after values point to notes of the source that are not given here.

Key:
[1] = Balanced, randomized 4-phase cross-over study, Profile of Mood State (POMS) rating scale after intravenous administration; format: in vivo, healthy male volunteers; details: for composite "Dysphoria" ratings: POMS Anger-Hostility plus Depression plus Tension-Anxiety, compared with placebo, Figure 3; for vigor ratings: POMS Vigor-Activity, compared with 1-MPH and placebo, Figure 2; for effect on "Energy": POMS composite score (Vigor-Activity minus Fatigue-Inertia), Figure 1; for rank order of ratings of the three components of "Dysphoria" (Tension, Depression and Anger): four treatments, same order for each component, Figure 4
Description: A balanced, randomized 4-phase cross-over study was carried out in 12 healthy male volunteers who each received intravenous administrations of dl-MPH, d-threo-methylphenidate (d-MPH), 1-MPH and placebo. The Profile of Mood State (POMS) rating scale was used to estimate pharmacodynamic factors including Anger-Hostility, Confusion-Bewilderment, Depression-Dejection, Fatigue-Inertia, Tension-Anxiety, and Vigor-Activity. In addition composite scores were also produced for "Energy" ("Vigor-Activity" minus "Fatigue-Inertia") and 'Dysphoria" ("Anger-Hostility" plus […] plus "Tension-Anxiety").
This paradox apparently arose because d-MPH enhanced both components of "Energy" (Vigor-Activity and Fatigue-Inertia) over the test period.
The Fatigue-Inertia factor was not a simple rebound phenomenon.
There were very robust effects of drug condition on composite "Dysphoria" ratings. The d-MPH and to a lesser extent dl-MPH both increased "Dysphoria" compared with the placebo or 1-MPH.
Figure 4 depicts the response of the three components of "Dysphoria" (Tension, Depression and Anger) to the four treatments. […] Thus it appears that the overall pharmacodynamic effect of dl-MPH may represent an interaction between the "Dysphoric" effects of d-MPH and the mildly euphoric effects of 1-MPH. It is conceivable that the 1-MPH will emerge as euphoriant or antidepressant in subjects with higher baseline "Dysphoria" scores such as depressed patients in whom the dose of 1-MPH will have to be titrated.

[2] = oral, cited from earlier work
[3] = mean ±SD in plasma; intravenous 10mg dl-MPH; 11 healthy male volunteers; cited from earlier work
[4] = cited from earlier work
[5] = target: central dopamine transporters (Homo sapiens, UniProt Q01959); details: after oral administration of dl-MPH in humans; cited from earlier work
central dopamine transporters, sequence (Q01959 whole entry): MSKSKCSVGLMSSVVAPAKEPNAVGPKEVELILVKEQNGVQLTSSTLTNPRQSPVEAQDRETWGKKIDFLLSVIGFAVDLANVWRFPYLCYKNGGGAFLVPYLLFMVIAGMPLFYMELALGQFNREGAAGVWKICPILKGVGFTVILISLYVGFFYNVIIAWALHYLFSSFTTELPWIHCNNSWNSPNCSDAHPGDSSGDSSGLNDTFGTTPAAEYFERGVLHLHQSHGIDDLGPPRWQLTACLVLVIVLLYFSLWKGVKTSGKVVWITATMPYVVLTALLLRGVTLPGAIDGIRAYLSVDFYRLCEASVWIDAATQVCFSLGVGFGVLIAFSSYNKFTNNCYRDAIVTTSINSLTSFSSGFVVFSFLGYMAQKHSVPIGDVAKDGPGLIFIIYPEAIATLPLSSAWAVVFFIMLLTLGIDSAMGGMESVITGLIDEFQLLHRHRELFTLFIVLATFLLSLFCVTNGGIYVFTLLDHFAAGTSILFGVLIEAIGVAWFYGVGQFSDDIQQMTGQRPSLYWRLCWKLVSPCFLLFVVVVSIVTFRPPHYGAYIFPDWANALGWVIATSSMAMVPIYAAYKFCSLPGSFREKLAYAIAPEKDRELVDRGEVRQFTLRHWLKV

| SMILES | composite "Dysphoria" ratings [1] | vigor ratings [1] | effect on "Energy" [1] | rank order of ratings of the three components of "Dysphoria" (Tension, Depression and Anger) [1] | Hamilton depression scale decreased ([2]; 3 subjects, decreased minimally) | Hamilton depression scale decreased ([2]; 7 subjects, depressive symptoms decreased markedly) | benefit in depressed patients ([2]; n = 16) | CLR [3] | MRT [3] | Vdss [3] | absolute bioavailability (F) ([4]; after oral administration of the racemic drug) | blocking central dopamine transporters [5] | CL [3] | concentrations in plasma and brain ([4]; after oral administration of dl-MPH, extensive enantioselective first pass metabolism) |
| --- | --- | --- | --- | --- | --- | --- | --- | --- | --- | --- | --- | --- | --- | --- |
| COC(=O)[C@H](c1ccccc1)[C@H]1CCCCN1 (racemic) [dl-MPH, dl-threo-methylphenidate] | increased | significantly different | enhanced | 1-MPH < placebo < dl-MPH < d-MPH | < 30% | > 55% | statistically and clinically significant |  |  |  |  |  |  |  |
| COC(=O)[C@H](c1ccccc1)[C@H]1CCCCN1 [d-MPH, d-threo-methylphenidate] | increased | significantly different | not strongly energizing | 1-MPH < placebo < dl-MPH < d-MPH |  |  |  | 0.005±0.003 l/kg.h^-1 | 6.53 ± 1.62 h | 2.65 ± 1.11 L/kg | 0.25 | very effective |  |  |
| COC(=O)[C@@H](c1ccccc1)[C@@H]1CCCCN1 [1-MPH, 2S,2'S-methyl 2-phenyl-2-(2'-piperidyl)acetate] | numerically lower |  |  | 1-MPH < placebo < dl-MPH < d-MPH |  |  |  | 0.005±0.003^c l/kg.h^-1 | 2.44±0.51^b h | 1.80±0.91^b L/kg |  |  | 0.73±0.028^h L/kg.h^-1 | very low |
